Converted amounts (≈) assume the structure as drawn. Read-outs that look alike come from different tables or passages of the source.
Assays:
S. aureus (ATCC29213) = assay: 50% growth inhibitory concentration (IC50) determination assay, S. aureus; type: cell-based; conditions: Staphylococcus aureus, growth inhibition, Iso-Sensitest broth, OD 600 nm over 16h, <0.098 = the detection limit
Procedure: (§1) The in vitro antimicrobial activity of the compounds against S. aureus (ATCC29213), K. pneumoniae (ATCC10031), and A. baumannii (ATCC17978), was determined according to the following procedure: The assay used a 10-points Iso-Sensitest broth medium to measure quantitatively the in vitro activity of the compounds against S. aureus ATCC29213, K. pneumoniae ATCC 10031, and A. baumannii ATCC17978. Stock compounds in DMSO were serially two-fold diluted (range from 50 to 0.097 μM final concentration) in 384 wells microtiter plates and inoculated with 49 μL the bacterial suspension in Iso-Sensitest broth medium to have a final cell concentration of ˜5×10^5 CFU/mL in a final volume/well of 50 μL/well. Microtiter plates were incubated at 35±2° C. Bacterial cell growth was determined with the measurement of optical density at λ=600 nm each 20 minutes over a time course of 16h. Growth inhibition was calculated during the logarithmic growth of the bacterial cells with determination of the concentration inhibiting 50% (IC50) of the growth. Compounds of the present invention were tested for their concentration inhibiting 50% (IC50). The data of IC50 over S. aureus (ATCC29213), K. pneumoniae (ATCC10031), and A. baumannii (ATCC17978) are illustrated in Table 4.

[1] = test system: K. pneumoniae (ATCC10031); assay: 50% growth inhibitory concentration (IC50) determination assay, K. pneumoniae; type: cell-based; conditions: Klebsiella pneumoniae, growth inhibition, Iso-Sensitest broth, OD 600 nm over 16h, <0.098 = the detection limit
Procedure: as §1

A. baumannii (ATCC17978) = assay: 50% growth inhibitory concentration (IC50) determination assay, A. baumannii; type: cell-based; conditions: Acinetobacter baumannii, growth inhibition, Iso-Sensitest broth, OD 600 nm over 16h, <0.098 = the detection limit
Procedure: as §1

[2] = Lyophilisation solubility assay (LYSA); type: physicochemical; conditions: thermodynamic from solid
Procedure: The solubility of compounds of present invention was assessed by LYSA assay. Samples were prepared in duplicate from 10 mM DMSO stock solutions ([…]) diluted in 30 μL pure DMSO. After evaporation of DMSO with a centrifugal vacuum evaporator, the residue was dissolved in 0.05 M phosphate buffer (150 μL, pH 6.5), which was stirred for one hour and shook for two hours. After one night, the solution was filtered using a microtiter filter plate. Then the filtrate and its 1/10 dilution were analyzed by HPLC-UV. In addition, a four-point calibration curve was prepared from the 10 mM stock solutions and used for the solubility determination of the compounds.

[3] = aqueous buffer, 0.05 M phosphate buffer, pH 6.5, HPLC-UV, <1.0 = the detection limit, read-out: Lysa

| SMILES | IC50 (S. aureus (ATCC29213)) | IC50 [1] | IC50 (A. baumannii (ATCC17978)) | solubility thermodynamic [2, 3] | solubility thermodynamic ([2]; pH 6.5, aqueous buffer) |
| --- | --- | --- | --- | --- | --- |
| CNc1cc(F)c(F)c2c1[nH]c1ncc(-c3cnc4ccnn4c3)c(N3CC[C@H]4CN(C)C[C@H]43)c12 (relative stereo) [Example 1.50, 4-[Cis-5-methyl-2,3,3a,4,6,6a-hexahydropyrrolo[2,3-c]pyrrol-1-yl]-5,6-difluoro-N-methyl-3-pyrazolo[1,5-a]pyrimidin-6-yl-9H-pyrido[2,3-b]indol-8-amine] | 0.369 µM | < 0.098 µM | < 0.098 µM |  |  |
| CCNc1cc(Cl)cc2c1[nH]c1ncc(-c3cncc(C#N)c3)c(N3CCC(N)C3)c12 (stereo not drawn) [Example 1.03, 5-[4-(3-Aminopyrrolidin-1-yl)-6-chloro-8-(ethylamino)-9H-pyrido[2,3-b]indol-3-yl]pyridine-3-carbonitrile] |  |  |  | 32.7 µg/mL (≈ 75.7 µM) |  |
| CCNc1cc(F)cc2c1[nH]c1ncc(-c3cncc(C#N)c3)c(N3CCCC3CN)c12 (stereo not drawn) [Example 1.06, 5-[4-[2-(Aminomethyl)pyrrolidin-1-yl]-8-(ethylamino)-6-fluoro-9H-pyrido[2,3-b]indol-3-yl]pyridine-3-carbonitrile] |  |  |  | > 625 µg/mL |  |
| CNc1cc(F)c(F)c2c1[nH]c1ncc(-c3cnc(OC)nc3)c(N3CCC[C@@H](CN)C3)c12 [Example 1.25, 4-[(3S)-3-(Aminomethyl)-1-piperidyl]-5,6-difluoro-3-(2-methoxypyrimidin-5-yl)-N-methyl-9H-pyrido[2,3-b]indol-8-amine] |  |  |  | 194 µg/mL (≈ 428 µM) |  |
| CNc1cc(F)c(F)c2c1[nH]c1ncc(-c3cnc(OC)nc3)c(N3CCOC(CN)C3)c12 (stereo not drawn) [Example 1.33, 4-[2-(Aminomethyl)morpholin-4-yl]-5,6-difluoro-3-(2-methoxypyrimidin-5-yl)-N-methyl-9H-pyrido[2,3-b]indol-8-amine] |  |  |  | 475 µg/mL (≈ 1040 µM) |  |
| CNc1cc(F)c(F)c2c1[nH]c1ncc(-c3cnc(OC)nc3)c(N3CCCC3CN)c12 (stereo not drawn) [Example 1.37, 4-[2-(Aminomethyl)pyrrolidin-1-yl]-5,6-difluoro-3-(2-methoxypyrimidin-5-yl)-N-methyl-9H-pyrido[2,3-b]indol-8-amine] |  |  |  | 545 µg/mL (≈ 1240 µM) |  |
| CNc1cc(F)c(F)c2c1[nH]c1ncc(-c3cncc(C#N)c3)c(N3CC4CC(C3)N4)c12 [Example 1.44, 5-(4-(3,6-Diazabicyclo[3.1.1]heptan-3-yl)-5,6-difluoro-8-(methylamino)-9H-pyrido[2,3-b]indol-3-yl)nicotinonitrile] |  |  |  |  | 270 µg/mL (≈ 626 µM) |
| CNc1cc(F)c(F)c2c1[nH]c1ncc(-c3cc[nH]c(=O)c3)c(N(C)C)c12 [Example 1.51, 4-[4-(Dimethylamino)-5,6-difluoro-8-(methylamino)-9H-pyrido[2,3-b]indol-3-yl]-1H-pyridin-2-one] | 1.04 µM | < 0.098 µM | < 0.098 µM |  |  |
| CNc1cc(F)c(F)c2c1[nH]c1ncc(-c3cncc(C#N)c3)c(N3C4CNCC3C4)c12 [Example 1.58, 5-(4-(3,6-Diazabicyclo[3.1.1]heptan-6-yl)-5,6-difluoro-8-(methylamino)-9H-pyrido[2,3-b]indol-3-yl)nicotinonitrile] | 0.231 µM |  | 0.182 µM |  | 320 µg/mL (≈ 742 µM) |
| CNc1cc(F)cc2c1[nH]c1ncc(-c3cncc(C#N)c3)c(N3C4CNCC3C4)c12 [Example 1.60, 5-(4-(3,6-Diazabicyclo[3.1.1]heptan-6-yl)-6-fluoro-8-(methylamino)-9H-pyrido[2,3-b]indol-3-yl)nicotinonitrile] | 0.842 µM |  |  |  | 53 µg/mL (≈ 128 µM) |
| CCNc1cc(F)cc2c1[nH]c1ncc(-c3cnc(C4(C(=O)O)CC4)nc3)c(N(C)C)c12 [Example 2.01, 1-[5-[4-(Dimethylamino)-8-(ethylamino)-6-fluoro-9H-pyrido[2,3-b]indol-3-yl]pyrimidin-2-yl]cyclopropanecarboxylic acid] |  |  |  | 129 µg/mL (≈ 297 µM) |  |
| CNc1cc(F)cc2c1[nH]c1ncc(-c3cnc(OC)nc3)c(N3CC(CN)C(F)(F)C3)c12 (stereo not drawn) [Example 3.02, 4-[4-(aminomethyl)-3,3-difluoro-pyrrolidin-1-yl]-6-fluoro-3-(2-methoxypyrimidin-5-yl)-N-methyl-9H-pyrido[2,3-b]indol-8-amine] |  |  |  | 196 µg/mL (≈ 428 µM) |  |

More lines, main results first:

| IC50 (S. aureus (ATCC29213)) | IC50 [1] | IC50 (A. baumannii (ATCC17978)) | solubility thermodynamic [2, 3] | SMILES | solubility thermodynamic ([2]; pH 6.5, aqueous buffer) |
| --- | --- | --- | --- | --- | --- |
| 0.863 µM | < 0.098 µM | < 0.098 µM |  | CCNc1cc(F)cc2c1[nH]c1ncc(-c3cncc(C#N)c3)c(N3CCC4(C[C@H]4N)C3)c12 (stereo in doubt) [Example 1.11, 5-[8-(Ethylamino)-6-fluoro-4-[cis-2-amino-5-azaspiro[2.4]heptan-5-yl]-9H-pyrido[2,3-b]indol-3-yl]pyridine-3-carbonitrile] |  |
| 1.24 µM |  | 0.1 µM | 16 µg/mL (≈ 35.9 µM) | CNc1cc(F)c(F)c2c1[nH]c1ncc(-c3cncc(C#N)c3)c(N3CCC4(C[C@@H]4N)C3)c12 (stereo in doubt) [Example 1.29, 5-[4-[Trans-2-amino-5-azaspiro[2.4]heptan-5-yl]-5,6-difluoro-8-(methylamino)-9H-pyrido[2,3-b]indol-3-yl]pyridine-3-carbonitrile] |  |
| 1.01 µM |  | < 0.098 µM |  | CNc1cc(F)c(F)c2c1[nH]c1ncc(-c3cncc(C#N)c3)c(N3CCC4(C[C@H]4N)C3)c12 (stereo in doubt) [Example 1.30, 5-[4-[Cis-2-amino-5-azaspiro[2.4]heptan-5-yl]-5,6-difluoro-8-(methylamino)-9H-pyrido[2,3-b]indol-3-yl]pyridine-3-carbonitrile] |  |
|  |  |  | 59 µg/mL (≈ 147 µM) | CNc1cc(F)cc2c1[nH]c1ncc(-c3cncc(C#N)c3)c(N3CC[C@@H](N)C3)c12 [Example 1.01, 5-[4-[(3R)-3-Aminopyrrolidin-1-yl]-6-fluoro-8-(methylamino)-9H-pyrido[2,3-b]indol-3-yl]pyridine-3-carbonitrile] |  |
| 0.312 µM | < 0.098 µM | < 0.098 µM |  | CCNc1cc(F)cc2c1[nH]c1ncc(-c3cncc(C#N)c3)c(N3CCC(F)(CN)C3)c12 (stereo not drawn) [Example 1.10, 5-[4-[3-(Aminomethyl)-3-fluoro-pyrrolidin-1-yl]-8-(ethylamino)-6-fluoro-9H-pyrido[2,3-b]indol-3-yl]pyridine-3-carbonitrile] |  |
|  |  |  | 44 µg/mL (≈ 98.3 µM) | CNc1cc(F)c(F)c2c1[nH]c1ncc(-c3cncc(C#N)c3)c(N3CCCC(CN)C3)c12 (stereo not drawn) [Example 1.21, 5-[4-[3-(Aminomethyl)-1-piperidyl]-5,6-difluoro-8-(methylamino)-9H-pyrido[2,3-b]indol-3-yl]pyridine-3-carbonitrile] |  |
|  |  |  | 30 µg/mL (≈ 69.2 µM) | CNc1cc(F)cc2c1[nH]c1ncc(-c3cncc(C#N)c3)c(N3CCC(F)(CN)C3)c12 (stereo not drawn) [Example 1.23, 5-[4-[3-(Aminomethyl)-3-fluoro-pyrrolidin-1-yl]-6-fluoro-8-(methylamino)-9H-pyrido[2,3-b]indol-3-yl]pyridine-3-carbonitrile] |  |
|  |  |  | 140 µg/mL (≈ 309 µM) | CNc1cc(F)c(F)c2c1[nH]c1ncc(-c3cnc(OC)nc3)c(N3CCC(C)(CN)C3)c12 (stereo not drawn) [Example 1.36, 4-[3-(Aminomethyl)-3-methyl-pyrrolidin-1-yl]-5,6-difluoro-3-(2-methoxypyrimidin-5-yl)-N-methyl-9H-pyrido[2,3-b]indol-8-amine] |  |
|  |  |  | > 610 µg/mL | CNc1cc(F)c(F)c2c1[nH]c1ncc(-c3cncc(C#N)c3)c(N3CCCC3CN)c12 (stereo not drawn) [Example 1.38, 5-[4-[2-(Aminomethyl)pyrrolidin-1-yl]-5,6-difluoro-8-(methylamino)-9H-pyrido[2,3-b]indol-3-yl]pyridine-3-carbonitrile] |  |
|  |  |  | 49 µg/mL (≈ 109 µM) | CNc1cc(F)c(F)c2c1[nH]c1ncc(-c3cncc(C#N)c3)c(N3CCC[C@@H](CN)C3)c12 [Example 1.40, 5-[4-[(3S)-3-(Aminomethyl)-1-piperidyl]-5,6-difluoro-8-(methylamino)-9H-pyrido[2,3-b]indol-3-yl]pyridine-3-carbonitrile] |  |
| 0.992 µM | 0.172 µM | 0.528 µM |  | CCNc1cc(F)c(C)c2c1[nH]c1ncc(-c3cncc(C#N)c3)c(N3CCC(CN)C3)c12 (stereo not drawn) [Example 1.45, 5-(4-(3-(Aminomethyl)pyrrolidin-1-yl)-8-(ethylamino)-6-fluoro-5-methyl-9H-pyrido[2,3-b]indol-3-yl)nicotinonitrile] |  |
| 1.31 µM | < 0.098 µM | 0.143 µM |  | CNc1cc(F)c(F)c2c1[nH]c1ncc(-c3cncc(C#N)c3)c(N3CCC4(CCC4N)C3)c12 (stereo not drawn) [Example 1.49, 5-(4-(1-Amino-6-azaspiro[3.4]octan-6-yl)-5,6-difluoro-8-(methylamino)-9H-pyrido[2,3-b]indol-3-yl)nicotinonitrile] |  |
